Laboratory results taken from article PMC6787163, “Systematic Dual Targeting of Dendritic Cell C-Type Lectin Receptor DC-SIGN and TLR7 Using a Trifunctional Mannosylated Antigen” (Frontiers in Chemistry, 2019).

Key:
moDCs = assay: Internalization of biotinylated hexavalent clusters by moDCs (flow cytometry); format: cell-based, human
Experimental: For the internalization, the moDCs were incubated with clusters b6, c6, d6, and e6 for 1 h at 4°C, where after unbound ligands were washed away with ice-cold medium. Warm medium was added to the moDCs, and samples were taken at the indicated time points and put on ice. Upon staining the moDCs with fluorophore-conjugated streptavidin, we could measure the signal loss of the membrane via flow cytometry. To exclude ligand-receptor dissociation before internalization, the moDCs were fixed under gentle conditions, hereby inhibiting receptor-mediated endocytosis. On fixed moDCs the clusters remained at the surface, as no signal loss could be detected (Supplementary Figure 1D). […] The di-mannoside clusters (b6, c6, and d6) were internalized relatively fast, with a 50% uptake within 5 min (Figure 5B). The tri-mannoside cluster e6 however remained longer at the membrane surface and only a 25% uptake was seen after 30 min. Similar results were seen using a pH-sensitive fluorophore. In acidic environments, such as the endosomes and lysosomes, the fluorescence of this dye increases. Pre-complexed clusters mirrored the accelerated uptake of the di-mannoside clusters over the e6 cluster (Supplementary Figure 1E). Although the DC-SIGN mediated uptake mechanism is known (Cambi et al., [2009]), the initiation trigger for endocytosis upon DC-SIGN-ligand binding remains unclear. Recognition of the di-mannoside clusters could induce signaling leading to accelerated uptake, whereas the tri-mannoside cluster could trigger a different signaling pathway. Nonetheless, the clusters harboring the smaller mannosides are preferred. Although the binding affinity of the clusters ranged from 0.9 to 6.6 μM, the di-mannosides induce more rapid DC-SIGN internalization over the tri-mannosides, and can thus increase intracellular peptide concentrations more efficiently for further antigen processing and presentation.
Immature day 5 moDCs were harvested and washed with cold HBSS (Thermo Fischer), after which half of the moDCs were gently fixed for 20 min at RT with 1% PFA in PBS. Afterwards, 20 μM of the different biotinylated mannose-clusters in cold HBSS were added. The moDCs were incubated for 1 h on ice, and washed in cold HBSS. Subsequently, warm HBSS was added to the cells, and cells were incubated at 37°C in a shaking heating block. At the indicated time points, a sample of the cells was taken and put on ice. After the last time point, the cells were stained with Streptavidin-Alexa647 (Thermo Fisher), measured using flow cytometry (CyAn™ ADP with Summit™ Software), and further analyzed using FlowJo v10. The same procedure was used for internalization with pHrodo^TM Red Avidin (Thermo Fischer). The different biotinylated mannose-clusters were however incubated with pHrodo-Avidin (ratio 2:1) for 15 min at 37°C, prior to moDC exposure. The fluorescence upon internalization was measured using flow cytometry (BD LSRFortessa™ X-20 with FACSDiva Software), and further analyzed using FlowJo v10.

DC-SIGN on moDC = assay: Binding of biotinylated mannoside library to moDCs by flow cytometry; format: cell-based, human; settings: 10 μM biotinylated cluster, 30 min at 4°C, streptavidin staining
Experimental: Next, we assessed the binding of our clusters to cellular DC-SIGN using moDCs (Figure 3B, Supplementary Figure 1B). To this end, binding of the clusters a1–a6, b1–b6, c1–c6, d1–d6, and e1–e6, decorated with a biotin handle, was determined by flow cytometry. Clusters were bound to moDCs for 30 min at 4°C. By staining using fluorophore-conjugated streptavidin and washing at 4°C, the bound clusters could be quantified by flow cytometry. […] In control experiments ligand binding to DC-SIGN was inhibited using a blocking anti-DC-SIGN antibody (Supplementary Figure 1C).
Approximately 10^5 day 5 moDCs were washed and resuspended in 100 μL culture medium (pre-cooled to 4°C). 20 μg/mL AZN-D1 (anti-DC-SIGN, in house Geijtenbeek et al., [2002]) or purified mouse anti-human CD206 antibody (Clone 19.2, BD Bioscience) was added to the moDCs and pre-incubated for 45 min on ice. Subsequently, 10 μM of the biotinylated mannoside clusters or 1 μg/mL of Lewis^Y-conjugated polyacrylamide (positive control) was added, and incubated for 30 min at 4°C. Cells were then washed with pre-cooled PBS (4°C), and stained with Alexa647-labeled streptavidin (Invitrogen^TM) in PBS supplemented with 0.5% BSA and 0.02% NaN3 (PBA) for 30 min at 4°C. Upon washing in ice-cold PBA and fixation in PBS with 0.5% PFA, the fluorescence was measured by flow cytometry (CyAn™ ADP with Summit™ Software), and further analyzed using FlowJo v10.

DC-SIGN S-ECD = target: T1, DC-SIGN S-ECD (Homo sapiens, UniProt Q9NNX6); assay: SPR direct interaction assay on oriented DC-SIGN S-ECD surface; format: binding; settings: SPR direct interaction, oriented tetrameric DC-SIGN ECD surface, apparent Kd; read-out: Kdapp
T1 construct: The ECD of DC-SIGN (residues 66–404) was overexpressed and purified as previously described; made in house
T1 sequence (Q9NNX6 66-404): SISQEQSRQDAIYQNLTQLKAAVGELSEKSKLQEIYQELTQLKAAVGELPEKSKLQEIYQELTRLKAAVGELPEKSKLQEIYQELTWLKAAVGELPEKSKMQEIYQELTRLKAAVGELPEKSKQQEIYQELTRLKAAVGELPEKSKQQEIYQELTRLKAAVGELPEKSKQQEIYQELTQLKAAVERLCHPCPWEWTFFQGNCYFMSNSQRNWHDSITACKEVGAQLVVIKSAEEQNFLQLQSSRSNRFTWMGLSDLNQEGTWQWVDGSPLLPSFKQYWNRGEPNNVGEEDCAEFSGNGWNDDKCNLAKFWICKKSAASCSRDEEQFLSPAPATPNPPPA
Experimental: (§1) The affinity of the clusters for the extracellular domain (ECD) of the DC-SIGN receptor (DC-SIGN ECD) was estimated via surface plasmon resonance (SPR) assays (Tabarani et al., [2009]). The apparent Kd was calculated in direct interaction mode using a surface functionalized in an oriented manner with DC-SIGN ECD. In this assay, tetrameric DC-SIGN ECD is attached to the surface of the sensor chip via the N-terminus of its neck oligomerization domain, thus presenting its four carbohydrate recognition domains toward the solvent, realistically mimicking the presentation of the receptor on cell surface (Porkolab et al., [2019]). For some of the low affinity ligands, in the mM range, it was not possible to determine their affinity with this assay, and therefore a competition experiment was performed providing IC50 values (Timpano et al., [2008]) (Figure 3A). […] When comparing equivalent clusters, the α1,2-di-mannoside (B series) bound with the highest affinity (Figure 3A). […] A potential explanation for this effect could be that the spacing of clusters is more important for the larger tri-mannosides.
The direct interaction experiments were executed on a T200 Biacore with a CM3 series S sensor chip. Contrary to the competition assay described above, in this test, DC-SIGN ECD used harbors a StreptagII in its N-terminus (DC-SIGN S-ECD) to allow its capture and functionalization onto the surface in an oriented manner. Flow cells were functionalized as previously described (Porkolab et al., [2019]). Briefly, after EDC/NHS activation, flow cells were functionalized with streptactin protein in a first step. Flow cell 1 was used as control, while other flow cells were, in a second round of activation, functionalized with 100 μg/mL of a DC-SIGN S-ECD up to a final density ranging between 2,500 and 3,000 RU, via tag specific capture and linkage by amine coupling chemistry simultaneously. The compounds were injected in running buffer of 25 mM Tris pH 8, 150 mM NaCl, 4 mM CaCl2, 0.05% Tween 20 onto the surface at increasing concentrations with a flow rate of 30 μL/min. The ligand titration led to the determination of an apparent Kd value. The data was analyzed in BIAcore BIAevaluation software for direct interaction 1:1 calculation assuming that the Kd will reflect the affinity of the ligands (glycoclusters) for the DC-SIGN oriented surface used as a whole.

DC-SIGN ECD = target: T2, DC-SIGN ECD (Homo sapiens, UniProt Q9NNX6); assay: SPR competition (inhibition) assay, DC-SIGN ECD on BSA-mannotriose surface; format: binding; settings: DC-SIGN ECD 20 μM
T2 construct: The ECD of DC-SIGN (residues 66–404) was overexpressed and purified as previously described; made in house
T2 sequence (Q9NNX6 66-404): T1 sequence (Q9NNX6 66-404)
Experimental: as §1
The ECD of DC-SIGN (residues 66–404) was overexpressed and purified as previously described (Tabarani et al., [2009]). The DC-SIGN S-ECD construct used for direct interaction experiment (see below) has been overexpressed and purified as described elsewhere (Porkolab et al., [2019]). The SPR competition experiments were performed on a BIAcore T200 using a CM3 series S sensor chip. Flow cells were activated as previously described (Halary et al., [2002]). Flow cell 1 was functionalized with BSA, blocked with ethanolamine and subsequently used as a control surface. Flow cells 2 and 3 were treated with BSA-Man α1-3[Manα1-6]Man (Dextra) (60 μg/mL) in 10 mM NaOAc pH 4 and blocked with ethanolamine. The final densities on flow cells 2 and 3 were about 2,100 RU. The affinities of the various compounds for DC-SIGN ECD were evaluated via an established inhibition assay (Andreini et al., [2011]) in which DCSIGN ECD was injected at 20 μM alone or in the presence of increasing concentration of inhibitors. Injections were performed at 5 μL/min using 25 mM Tris-HCl pH 8, 150 mM NaCl, 4 mM CaCl2, 0.05% P20 surfactant as running buffer. The surface was regenerated by the injection of 50 mM EDTA. The data was analyzed in BIAcore BIAevaluation software using four parameter equation.

Row | SMILES | internalization by moDCs (loss of surface streptavidin signal) (moDCs; 20 μM cluster, live moDCs) | internalization by moDCs (pHrodo-avidin fluorescence increase) (moDCs; clusters pre-complexed with pH-sensitive dye) | uptake by immature moDCs (moDCs; within 5 min at 37°C, 20 μM cluster) [%] | binding to DC-SIGN on moDC (DC-SIGN on moDC) | Kd (DC-SIGN S-ECD) [µM] | IC50 (DC-SIGN ECD) [µM]
1 | CC(=O)N[C@@H](CCCCn1cc(CO[C@H]2O[C@H](CO[C@H]3O[C@H](CO)[C@@H](O)[C@H](O)[C@@H]3O)[C@@H](O)[C@H](O)[C@@H]2O)nn1)C(=O)N[C@@H](CCCCn1cc(CO[C@H]2O[C@H](CO[C@H]3O[C@H](CO)[C@@H](O)[C@H](O)[C@@H]3O)[C@@H](O)[C@H](O)[C@@H]2O)nn1)C(=O)N[C@@H](CCCCn1cc(CO[C@H]2O[C@H](CO[C@H]3O[C@H](CO)[C@@H](O)[C@H](O)[C@@H]3O)[C@@H](O)[C@H](O)[C@@H]2O)nn1)C(=O)N[C@@H](CCCCn1cc(CO[C@H]2O[C@H](CO[C@H]3O[C@H](CO)[C@@H](O)[C@H](O)[C@@H]3O)[C@@H](O)[C@H](O)[C@@H]2O)nn1)C(=O)N[C@@H](CCCCn1cc(CO[C@H]2O[C@H](CO[C@H]3O[C@H](CO)[C@@H](O)[C@H](O)[C@@H]3O)[C@@H](O)[C@H](O)[C@@H]2O)nn1)C(=O)N[C@@H](CCCCn1cc(CO[C@H]2O[C@H](CO[C@H]3O[C@H](CO)[C@@H](O)[C@H](O)[C@@H]3O)[C@@H](O)[C@H](O)[C@@H]2O)nn1)C(=O)NCC(=O)N[C@@H](CCCCN)C(N)=O [D6] | rapidly internalized | internalized rapidly | 50 | no increase in binding | 6.56 ± 1.2 | 
2 | CC(=O)N[C@@H](CCCCn1cc(CO[C@H]2O[C@H](CO)[C@@H](O)[C@H](O)[C@@H]2O)nn1)C(=O)N[C@@H](CCCCn1cc(CO[C@H]2O[C@H](CO)[C@@H](O)[C@H](O)[C@@H]2O)nn1)C(=O)N[C@@H](CCCCn1cc(CO[C@H]2O[C@H](CO)[C@@H](O)[C@H](O)[C@@H]2O)nn1)C(=O)N[C@@H](CCCCn1cc(CO[C@H]2O[C@H](CO)[C@@H](O)[C@H](O)[C@@H]2O)nn1)C(=O)N[C@@H](CCCCn1cc(CO[C@H]2O[C@H](CO)[C@@H](O)[C@H](O)[C@@H]2O)nn1)C(=O)N[C@@H](CCCCn1cc(CO[C@H]2O[C@H](CO)[C@@H](O)[C@H](O)[C@@H]2O)nn1)C(=O)NCC(=O)N[C@@H](CCCCN)C(N)=O [A6] |  |  |  | significantly higher binding | 7.82 ± 0.44 | 
3 | CC(=O)N[C@@H](CCCCn1cc(CO[C@H]2O[C@H](CO[C@H]3O[C@H](CO)[C@@H](O)[C@H](O)[C@@H]3O)[C@@H](O)[C@H](O[C@H]3O[C@H](CO)[C@@H](O)[C@H](O)[C@@H]3O)[C@@H]2O)nn1)C(=O)NCC(=O)N[C@@H](CCCCN)C(N)=O [E1] |  |  |  |  |  | 1520 ± 250
